Data: patent US4062950A, “Amino sugar derivatives” (priority 1973, dated 1977)
Like-named read-outs stand apart in the source and are kept apart here.

Tests used:
starch digestion = assay: In vivo starch digestion inhibition (starch feeding test) in the fasting rat; details: for ED50: ED50, starch, fasting rat, Table VI; for in vivo inhibition of starch digestion, in words: compared with expectation from in vitro amylase inhibition
pancreas-α-amylase = biological target: T1, pancreas-α-amylase (Sus scrofa, UniProt P00690); assay: In vitro amylase test; assay type: biochemical; details: for α-Amylase Inhibition / α-Amylase Inhibition In Vitro: in vitro; for α-Amylase Inhibition: Table II; for α-Amylase Inhibition In Vitro: Table VI; for amylase inhibiting activity of isolated product: isolated product of the Examples
T1 sequence (P00690 16-511): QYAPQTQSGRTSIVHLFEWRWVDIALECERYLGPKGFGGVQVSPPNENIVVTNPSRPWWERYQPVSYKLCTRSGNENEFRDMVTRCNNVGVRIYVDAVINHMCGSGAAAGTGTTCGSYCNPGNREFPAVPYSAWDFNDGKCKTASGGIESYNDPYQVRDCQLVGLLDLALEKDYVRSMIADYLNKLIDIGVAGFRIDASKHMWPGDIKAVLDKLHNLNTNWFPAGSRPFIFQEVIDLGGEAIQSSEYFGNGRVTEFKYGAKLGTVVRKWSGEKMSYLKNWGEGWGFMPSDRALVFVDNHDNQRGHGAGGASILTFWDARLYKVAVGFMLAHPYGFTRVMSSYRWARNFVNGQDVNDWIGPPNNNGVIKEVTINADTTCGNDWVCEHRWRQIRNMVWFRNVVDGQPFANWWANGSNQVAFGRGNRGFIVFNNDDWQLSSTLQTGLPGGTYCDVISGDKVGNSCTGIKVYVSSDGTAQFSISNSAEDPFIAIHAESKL
Experimental: One amylase inhibitor unit (1 AIU) is defined as the amount of inhibitor which inhibits two amylase units to the extent of 50%. One amylase unit (AU) is the amount of enzyme which under the test conditions specified below splits 1 μequivalent of glucoside bonds in the starch per minute. The μequivalents of split bonds are determined colorimetrically as μequivalents of reducing sugars formed, using dinitrosalicylic acid, and are quoted as μequivalents of maltose equivalents, using a maltose calibration curve. To carry out the test, 0.1 ml of amylase solution (20-22 AU/ml) are mixed with 0-10 μg of inhibitor or 0-20 μl of the solution to be tested in 0.4 ml of 0.02 M sodium glycerophosphate buffer/0.001 M CaCl2, pH 6.9, and the mixture is equilibrated for 10-20 minutes in a water bath at 35° C. The mixture is then incubated for 5 minutes at 35° C with 0.5 ml of a 1% strength starch solution which has been pre-warmed to 35° C (soluble starch No. 1,252 from Merck, Darmstadt), and thereafter 1 ml of dinitrosalicyclic acid reagent (according to P. bernfeld in Colowick-Kaplan, Meth. Enzymol., Volume l, page 149) is added. To develop the color, the batch is heated for 5 minutes on a boiling water bath and then cooled, and 10 ml of distilled water are added. The extinction at 540 nm is measured against a correspondingly made-up blank without amylase. […] The percentage inhibition is plotted as a function of the quotient [formula]

maltase = assay: In vitro maltase test; assay type: biochemical, pig; details: Table II
Experimental: One maltase inhibitor unit (MIU) is defined as the amount of inhibitor which inhibits two maltase units to the extent of 50%. One maltase unit (MU) is the amount of enzyme which in one minute, under the test conditions specified below, splits 1 μmol of maltose into 2 μmol of glucose. The μmol of glucose formed are determined quantitatively by means of the glucose oxidase reaction under conditions such that further splitting of maltose by the maltase no longer takes place. To carry out the test, 0.05 ml of solubilized maltase [from the mucous membrane of the small intestine of the pig, according to B. Borgstrom, A, Dahlquist, Acta Chem, Scan. […] The mixture is equilibrated for 10 minutes at 35° C and 0.1 ml of an 0.05 M maltose solution in 0.1 M sodium maleate buffer of pH 6.0, pre-warmed to 35° C, is then added. The mixture is incubated for 20 minutes at 35° C and the maltase reaction is stopped by addition of 1 ml of the glucose oxidase reagent described above, and the incubation is continued for a further 30 minutes at 35° C. Thereafter, 1 ml of 50% strength sulfuric acid is added and a measurement carried out at 545 nm against a corresponding blank.

saccharase = biological target: T2, saccharase (Rattus norvegicus, UniProt P23739); assay: In vivo saccharase inhibition (sucrose overfeeding test) in the fasting rat; details: for ED50: read-out: Saccharase Inhibition (ED50 mg/kg)
T2 construct: from tissue; host or cells: intestine of the living rat (endogenous enzyme)
T2 sequence (P23739 1014-1841 limits assumed): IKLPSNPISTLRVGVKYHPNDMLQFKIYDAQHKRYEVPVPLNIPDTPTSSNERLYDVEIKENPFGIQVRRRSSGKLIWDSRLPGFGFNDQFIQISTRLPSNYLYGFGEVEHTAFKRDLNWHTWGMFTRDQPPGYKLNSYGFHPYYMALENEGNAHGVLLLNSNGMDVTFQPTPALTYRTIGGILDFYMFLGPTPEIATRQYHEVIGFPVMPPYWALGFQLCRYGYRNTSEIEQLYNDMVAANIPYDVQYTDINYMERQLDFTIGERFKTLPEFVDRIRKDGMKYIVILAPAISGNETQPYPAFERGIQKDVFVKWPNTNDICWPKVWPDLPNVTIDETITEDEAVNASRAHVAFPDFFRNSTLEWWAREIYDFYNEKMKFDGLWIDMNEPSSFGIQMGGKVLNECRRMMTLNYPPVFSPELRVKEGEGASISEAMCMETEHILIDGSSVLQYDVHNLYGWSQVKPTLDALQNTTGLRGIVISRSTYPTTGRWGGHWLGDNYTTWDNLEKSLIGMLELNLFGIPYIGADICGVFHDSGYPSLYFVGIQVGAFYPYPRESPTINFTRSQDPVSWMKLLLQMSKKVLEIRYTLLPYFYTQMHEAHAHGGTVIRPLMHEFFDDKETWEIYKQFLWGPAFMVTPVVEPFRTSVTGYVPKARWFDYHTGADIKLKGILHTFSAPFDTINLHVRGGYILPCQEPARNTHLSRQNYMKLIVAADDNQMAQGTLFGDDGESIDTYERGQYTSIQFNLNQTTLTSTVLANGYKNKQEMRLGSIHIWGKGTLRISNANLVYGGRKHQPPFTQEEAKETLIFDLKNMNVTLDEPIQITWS
T2 sequence (P23739 2-1013 partner limits assumed): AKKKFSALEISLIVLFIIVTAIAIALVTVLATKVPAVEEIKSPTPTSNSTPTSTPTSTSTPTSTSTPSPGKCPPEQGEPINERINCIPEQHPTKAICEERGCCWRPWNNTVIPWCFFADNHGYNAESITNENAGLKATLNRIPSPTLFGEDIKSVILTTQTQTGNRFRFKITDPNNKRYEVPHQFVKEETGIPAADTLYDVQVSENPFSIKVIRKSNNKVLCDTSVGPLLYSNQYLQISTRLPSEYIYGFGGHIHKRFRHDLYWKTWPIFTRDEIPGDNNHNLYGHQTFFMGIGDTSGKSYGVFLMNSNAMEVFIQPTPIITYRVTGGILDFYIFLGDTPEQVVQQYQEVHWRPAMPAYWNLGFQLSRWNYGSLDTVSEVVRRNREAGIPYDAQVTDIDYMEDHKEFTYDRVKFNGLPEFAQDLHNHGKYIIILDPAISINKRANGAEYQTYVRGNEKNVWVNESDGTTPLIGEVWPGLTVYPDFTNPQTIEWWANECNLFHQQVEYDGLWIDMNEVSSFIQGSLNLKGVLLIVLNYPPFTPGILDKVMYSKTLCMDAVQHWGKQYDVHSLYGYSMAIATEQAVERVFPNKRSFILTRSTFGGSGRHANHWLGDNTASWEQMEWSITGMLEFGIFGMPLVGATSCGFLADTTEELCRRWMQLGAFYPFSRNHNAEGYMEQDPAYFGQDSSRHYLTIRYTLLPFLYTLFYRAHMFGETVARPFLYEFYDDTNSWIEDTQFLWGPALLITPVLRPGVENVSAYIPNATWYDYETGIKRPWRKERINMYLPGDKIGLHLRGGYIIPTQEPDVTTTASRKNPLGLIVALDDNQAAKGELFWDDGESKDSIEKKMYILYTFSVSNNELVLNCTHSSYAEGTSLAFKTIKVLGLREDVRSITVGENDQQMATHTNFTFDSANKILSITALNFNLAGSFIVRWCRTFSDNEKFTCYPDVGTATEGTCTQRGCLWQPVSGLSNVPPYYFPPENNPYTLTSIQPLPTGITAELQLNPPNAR
Experimental: The produce an alimentary hyperglycemia and hyperinsulinaemia, groups of 6 fasting rats are given (a) 2.5 g of sucrose, (b) 2.5 g of maltose or (c) 1 g of boiled starch orally, in aqueous solution or suspension. Six other rats are given the same carbohydrates in the same amount and a glycoside hydrolase inhibitor in the amount indicated. In addition, six other rats are given an appropriate volume of saline. The blood glucose and the serum insulin are then measured at short intervals of time, in the blood from the retro-orbital venous plexus. Blood glucose determinations are carried out in the Auto-Analyser device (Technicon), according to Hoffmann: J. biol.

[1] = 1 g starch + 150 AIU oral, 5 Min.
[2] = 1 g starch + 150 AIU oral, 10 Min.
[3] = 1 g starch + 150 AIU oral, 15 Min.
[4] = 1 g starch + 150 AIU oral, 20 Min.
[5] = 1 g starch + 150 AIU oral, 30 Min.
[6] = 1 g starch + 150 AIU oral, 45 Min.
[7] = 1 g starch + 300 AIU oral, 5 Min.
[8] = 1 g starch + 300 AIU oral, 10 Min.
[9] = 1 g starch + 300 AIU oral, 15 Min.
[10] = 1 g starch + 300 AIU oral, 20 Min.
[11] = 1 g starch + 300 AIU oral, 30 Min.
[12] = 1 g starch + 300 AIU oral, 45 Min.
[13] = 2.5 g sucrose + 100 SIU oral, 15 Min.
[14] = 2.5 g sucrose + 100 SIU oral, 30 Min.
[15] = 2.5 g sucrose + 100 SIU oral, 45 Min.

SMILES | Blood Glucose (Mean ± SD) (starch digestion; [1]) [mg%] | Blood Glucose (Mean ± SD) (starch digestion; [2]) [mg%] | Blood Glucose (Mean ± SD) (starch digestion; [3]) [mg%] | Blood Glucose (Mean ± SD) (starch digestion; [4]) [mg%] | Blood Glucose (Mean ± SD) (starch digestion; [5]) [mg%] | Blood Glucose (Mean ± SD) (starch digestion; [6]) [mg%] | Blood Glucose (Mean ± SD) (starch digestion; [7]) [mg%] | Blood Glucose (Mean ± SD) (starch digestion; [8]) [mg%] | Blood Glucose (Mean ± SD) (starch digestion; [9]) [mg%] | Blood Glucose (Mean ± SD) (starch digestion; [10]) [mg%] | Blood Glucose (Mean ± SD) (starch digestion; [11]) [mg%] | Blood Glucose (Mean ± SD) (starch digestion; [12]) [mg%] | ED50 (starch digestion) [mg/kg] | in vivo inhibition of starch digestion, in words (starch digestion) | α-Amylase Inhibition (pancreas-α-amylase) | α-Amylase Inhibition In Vitro (pancreas-α-amylase) [AIU/mg] | amylase inhibiting activity of isolated product (pancreas-α-amylase) | Maltase Inhibition (maltase) | Blood Glucose (Mean ± SD) (saccharase; [13]) [mg%] | Blood Glucose (Mean ± SD) (saccharase; [14]) [mg%] | further results
C[C@H]1O[C@H](O[C@H]2[C@H](O)[C@@H](O)[C@@H](O[C@H]3[C@H](O)[C@@H](O)C(O)O[C@@H]3CO)O[C@@H]2CO)[C@H](O)[C@@H](O)[C@@H]1N[C@H]1C=C(CO)[C@@H](O)[C@H](O)[C@H]1O (stereo partly drawn) [Formula IIIB, O-{4,6-bisdesoxy-4-[1 S-(1,4,6/5)-4,5,6-trihydroxy-3-hydroxymethylcyclohex-2-en-1-ylamino]-α-D-glucopyranosyl}-(1→4)-O-α-D-glucopyranosyl-(1→4)-D-glucopyranose] | 82 ± 7.5 | 105 ± 4.2 | 120 ± 6.0 | 124 ± 7.0 | 134 ± 6.1 | 125 ± 5.2 | 79 ± 8.2 | 97 ± 2.7 | 105 ± 10 | 118 ± 6.7 | 119 ± 9.9 | 130 ± 5.9 | 1.6 | much higher than would be expected | 300,000 AIU/g | 300 | 0.3 × 10^6 AIU/g | 15,000 MIU/g | 58 ± 5.9 | 92 ± 4.0 | Blood Glucose (Mean ± SD) (starch digestion; 1 g starch + 600 AIU oral, 5 Min.): 70 ± 4.6 mg%; Blood Glucose (Mean ± SD) (starch digestion; 1 g starch + 600 AIU oral, 10 Min.): 80 ± 8.8 mg%; Blood Glucose (Mean ± SD) (starch digestion; 1 g starch + 600 AIU oral, 15 Min.): 94 ± 6.9 mg%; Blood Glucose (Mean ± SD) (starch digestion; 1 g starch + 600 AIU oral, 20 Min.): 91 ± 16 mg%; Blood Glucose (Mean ± SD) (starch digestion; 1 g starch + 600 AIU oral, 30 Min.): 103 ± 9.2 mg%; Blood Glucose (Mean ± SD) (starch digestion; 1 g starch + 600 AIU oral, 45 Min.): 102 ± 4.2 mg%; Blood Glucose (Mean ± SD) (starch digestion; 1 g starch + 1,200 AIU oral, 5 Min.): 70 ± 7.0 mg%; Blood Glucose (Mean ± SD) (starch digestion; 1 g starch + 1,200 AIU oral, 10 Min.): 84 ± 7.7 mg%; Blood Glucose (Mean ± SD) (starch digestion; 1 g starch + 1,200 AIU oral, 15 Min.): 88 ± 7.4 mg%; Blood Glucose (Mean ± SD) (starch digestion; 1 g starch + 1,200 AIU oral, 20 Min.): 97 ± 5.2 mg%; Blood Glucose (Mean ± SD) (starch digestion; 1 g starch + 1,200 AIU oral, 30 Min.): 97 mg%; Blood Glucose (Mean ± SD) (starch digestion; 1 g starch + 1,200 AIU oral, 45 Min.): 100 ± 4.3 mg%; Blood Glucose (Mean ± SD) (saccharase; 2.5 g sucrose + 25 SIU oral, 15 Min.): 71 ± 3.7 mg%; Blood Glucose (Mean ± SD) (saccharase; 2.5 g sucrose + 25 SIU oral, 30 Min.): 100 ± 7.3 mg%; Blood Glucose (Mean ± SD) (saccharase; 2.5 g sucrose + 25 SIU oral, 45 Min.): 107 ± 2.4 mg%; Blood Glucose (Mean ± SD) (saccharase; [15]): 98 ± 5.0 mg%; ED50 (saccharase; rat): 0.21 mg/kg
C[C@H]1O[C@H](O[C@H]2[C@H](O)[C@@H](O)C(O)O[C@@H]2CO)[C@H](O)[C@@H](O)[C@@H]1N[C@H]1C=C(CO)[C@@H](O)[C@H](O)[C@H]1O (stereo partly drawn) [Formula IIB, O-{4,6-bisdesoxy-4-[1 S-(1,4,6/5)-4,5,6-trihydroxy-3-hydroxymethylcyclohex-2-en-1-ylamino]-α-D-glucopyranosyl}-(1→4)-D-glucopyranose] | 98 ± 8.7 | 116 ± 9.0 | 128 ± 5.8 | 127 ± 4.8 | 115 ± 5.2 | 137 ± 5.2 | 87 ± 13 | 106 ± 1.8 | 110 ± 8.9 | 111 ± 2.1 | 108 ± 5.3 | 121 ± 7.2 | 0.76 | much higher than would be expected | 300,000 AIU/g | 300 | 0.3 × 10^6 AIU/g | 5,000 MIU/g | 89 ± 6.5 | 111 ± 4.1 | Blood Glucose (Mean ± SD) (starch digestion; 1 g starch + 75 AIU oral, 5 Min.): 102 ± 2.9 mg%; Blood Glucose (Mean ± SD) (starch digestion; 1 g starch + 75 AIU oral, 10 Min.): 130 ± 6.9 mg%; Blood Glucose (Mean ± SD) (starch digestion; 1 g starch + 75 AIU oral, 15 Min.): 128 ± 5.4 mg%; Blood Glucose (Mean ± SD) (starch digestion; 1 g starch + 75 AIU oral, 20 Min.): 143 ± 11 mg%; Blood Glucose (Mean ± SD) (starch digestion; 1 g starch + 75 AIU oral, 30 Min.): 125 ± 11 mg%; Blood Glucose (Mean ± SD) (starch digestion; 1 g starch + 75 AIU oral, 45 Min.): 132 ± 18 mg%; Blood Glucose (Mean ± SD) (saccharase; 2.5 g sucrose + 50 SIU oral, 15 Min.): 105 ± 11 mg%; Blood Glucose (Mean ± SD) (saccharase; 2.5 g sucrose + 50 SIU oral, 30 Min.): 123 ± 5.2 mg%; Blood Glucose (Mean ± SD) (saccharase; 2.5 g sucrose + 50 SIU oral, 45 Min.): 128 ± 11 mg%; Blood Glucose (Mean ± SD) (saccharase; [15]): 116 ± 3.9 mg%; Blood Glucose (Mean ± SD) (saccharase; 2.5 g sucrose + 200 SIU oral, 15 Min.): 72 ± 4.6 mg%; Blood Glucose (Mean ± SD) (saccharase; 2.5 g sucrose + 200 SIU oral, 30 Min.): 95 ± 9.1 mg%; Blood Glucose (Mean ± SD) (saccharase; 2.5 g sucrose + 200 SIU oral, 45 Min.): 104 ± 9.6 mg%; ED50 (saccharase; ED50, sucrose, fasting rat, Table IV, read-out: Saccharase Inhibition In Vitro (ED50 mg/kg)): 3 mg/kg
